Measurements as given in ChEMBL document CHEMBL5252645, “Hydroxylated cyclopamine analogues from Veratrum californicum and their hedgehog pathway inhibiting activity” (Bioorg Med Chem, 2023).

Tests used:
[1] = Inhibition of Shh-induced hedgehog signalling pathway in mouse NIH/3T3 cells expressing Gli-Luc reporter gene assessed as reduction in Gli1 transcription activity incubated for 24 hrs in presence of mouse shh stimulation by dual luciferase Assay; format: cell-based; details: NIH3T3, 24 h
[2] = Inhibition of Shh-induced hedgehog signalling pathway in mouse MEF cells expressing Gli-Luc reporter gene assessed as reduction in Gli1 transcription activity incubated for 24 hrs in presence of mouse shh stimulation by dual luciferase Assay; format: cell-based

IC50 [1] [nM]	IC50 [2] [nM]	Compound
150	210	CC1=C2C[C@H]3[C@@H](CC=C4C[C@@H](O)CC[C@@]43C)[C@@H]2CC[C@]12O[C@@H]1[C@H](O)[C@H](C)CN[C@H]1[C@H]2C
2080	2800	C[C@@H]1CN[C@H]2[C@@H](C)[C@@]3(CC[C@@H]4C(=C3CO)C[C@H]3[C@H]4CC=C4C[C@@H](O)CC[C@@]43C)O[C@@H]2C1

Compound	IC50 [1] [nM]	IC50 [2] [nM]
CC1=C2C[C@H]3[C@@H](CC=C4C[C@@H](O)CC[C@@]43C)[C@@H]2CC[C@]12O[C@@H]1C[C@H](C)CN[C@H]1[C@H]2C [CYCLOPAMINE]	270	110
